Calls of active or inactive are those of the source. The rule behind the calls is not given here.
Legend:
[1] = biological target: C-X-C chemokine receptor type 4 (Homo sapiens) (UniProt P61073); assay: Antagonist activity at CXCR4 (unknown origin) assessed as inhibition of chemotaxis at 10 uM
[2] = biological target: T1, C-X-C chemokine receptor type 3 (Homo sapiens) (UniProt P49682); assay: Binding affinity to CXCR3 (unknown origin) at 10 uM by radioligand displacement assay
T1 sequence (whole entry): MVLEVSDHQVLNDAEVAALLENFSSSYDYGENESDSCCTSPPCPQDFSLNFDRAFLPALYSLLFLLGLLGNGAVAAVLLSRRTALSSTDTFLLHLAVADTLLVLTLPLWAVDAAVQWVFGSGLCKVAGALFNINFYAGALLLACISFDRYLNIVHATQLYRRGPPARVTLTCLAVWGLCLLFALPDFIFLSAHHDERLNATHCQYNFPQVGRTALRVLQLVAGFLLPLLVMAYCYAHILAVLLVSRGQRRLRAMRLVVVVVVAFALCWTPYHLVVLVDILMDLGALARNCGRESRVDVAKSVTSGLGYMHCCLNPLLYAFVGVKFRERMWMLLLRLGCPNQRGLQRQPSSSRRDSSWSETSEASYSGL

[3] = biological target: Cytochrome P450 1A2 (Homo sapiens, UniProt P05177); assay: Competitive inhibition of CYP1A2 (unknown origin); assay type: ADME
Cytochrome P450 1A2, sequence (P05177 whole entry): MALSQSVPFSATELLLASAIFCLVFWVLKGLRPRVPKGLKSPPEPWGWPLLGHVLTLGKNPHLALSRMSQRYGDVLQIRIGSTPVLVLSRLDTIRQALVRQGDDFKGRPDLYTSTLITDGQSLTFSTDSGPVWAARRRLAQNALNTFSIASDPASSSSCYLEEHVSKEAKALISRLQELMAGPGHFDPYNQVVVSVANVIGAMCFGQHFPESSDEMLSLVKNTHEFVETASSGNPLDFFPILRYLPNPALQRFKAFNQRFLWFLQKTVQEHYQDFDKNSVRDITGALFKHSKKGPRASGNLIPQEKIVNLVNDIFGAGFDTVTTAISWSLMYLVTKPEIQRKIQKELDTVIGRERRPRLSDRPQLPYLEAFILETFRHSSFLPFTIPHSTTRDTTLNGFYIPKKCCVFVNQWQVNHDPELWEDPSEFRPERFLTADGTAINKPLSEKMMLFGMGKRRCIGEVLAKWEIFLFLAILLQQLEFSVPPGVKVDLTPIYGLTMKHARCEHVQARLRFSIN

[4] = biological target: Cytochrome P450 2C19 (Homo sapiens, UniProt P33261); assay: Inhibition of CYP2C19 (unknown origin); assay type: ADME
Cytochrome P450 2C19, sequence (P33261 whole entry): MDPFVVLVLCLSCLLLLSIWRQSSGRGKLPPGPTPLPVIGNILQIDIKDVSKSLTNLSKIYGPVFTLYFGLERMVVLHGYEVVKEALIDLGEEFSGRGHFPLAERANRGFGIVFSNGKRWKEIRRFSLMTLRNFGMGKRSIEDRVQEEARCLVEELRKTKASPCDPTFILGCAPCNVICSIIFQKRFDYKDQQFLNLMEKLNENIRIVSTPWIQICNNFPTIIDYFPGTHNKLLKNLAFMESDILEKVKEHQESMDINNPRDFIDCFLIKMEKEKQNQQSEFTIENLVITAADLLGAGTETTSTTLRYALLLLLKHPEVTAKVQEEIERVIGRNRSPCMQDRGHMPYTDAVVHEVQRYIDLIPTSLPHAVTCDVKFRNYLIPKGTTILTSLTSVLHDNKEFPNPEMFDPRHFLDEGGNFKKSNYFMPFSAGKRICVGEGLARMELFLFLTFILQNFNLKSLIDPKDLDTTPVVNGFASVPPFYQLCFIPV

[5] = biological target: T2, C-C chemokine receptor type 3 (Homo sapiens) (UniProt P51677); assay: Binding affinity to CCR3 (unknown origin) at 10 uM by radioligand displacement assay
T2 sequence (whole entry): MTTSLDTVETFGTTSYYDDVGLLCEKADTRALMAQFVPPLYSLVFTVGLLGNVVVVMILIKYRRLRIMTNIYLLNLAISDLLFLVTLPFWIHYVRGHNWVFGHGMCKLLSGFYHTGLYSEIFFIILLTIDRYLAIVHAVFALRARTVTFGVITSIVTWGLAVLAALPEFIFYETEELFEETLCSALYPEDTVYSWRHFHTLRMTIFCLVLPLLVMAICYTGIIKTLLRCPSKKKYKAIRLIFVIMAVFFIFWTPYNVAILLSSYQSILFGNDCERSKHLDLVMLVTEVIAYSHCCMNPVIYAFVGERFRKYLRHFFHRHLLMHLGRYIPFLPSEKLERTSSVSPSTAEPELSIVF

[6] = biological target: T3, C-C chemokine receptor type 6 (Homo sapiens) (UniProt P51684); assay: Antagonist activity at CCR6 (unknown origin) assessed as inhibition of chemotaxis at 10 uM
T3 sequence (whole entry): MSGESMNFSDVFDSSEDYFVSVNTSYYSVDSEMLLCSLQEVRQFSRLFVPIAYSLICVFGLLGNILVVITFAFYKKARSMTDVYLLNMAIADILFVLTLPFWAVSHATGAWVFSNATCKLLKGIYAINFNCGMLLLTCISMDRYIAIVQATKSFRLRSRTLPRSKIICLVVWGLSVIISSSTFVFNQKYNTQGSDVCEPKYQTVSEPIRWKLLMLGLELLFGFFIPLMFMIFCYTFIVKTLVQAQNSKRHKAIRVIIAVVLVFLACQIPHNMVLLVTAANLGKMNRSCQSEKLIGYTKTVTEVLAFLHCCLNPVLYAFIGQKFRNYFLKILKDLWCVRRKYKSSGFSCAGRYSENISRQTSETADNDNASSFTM

[7] = system: Cytomegalovirus; assay: Antagonist activity at CMV US28 assessed as inhibition of chemotaxis at 10 uM
[8] = biological target: C-C chemokine receptor type 5 (Homo sapiens) (UniProt P51681); assay: Binding affinity to CCR5 (unknown origin) at 10 uM by radioligand displacement assay
C-C chemokine receptor type 5 (Homo sapiens), sequence (P51681 whole entry, looked up): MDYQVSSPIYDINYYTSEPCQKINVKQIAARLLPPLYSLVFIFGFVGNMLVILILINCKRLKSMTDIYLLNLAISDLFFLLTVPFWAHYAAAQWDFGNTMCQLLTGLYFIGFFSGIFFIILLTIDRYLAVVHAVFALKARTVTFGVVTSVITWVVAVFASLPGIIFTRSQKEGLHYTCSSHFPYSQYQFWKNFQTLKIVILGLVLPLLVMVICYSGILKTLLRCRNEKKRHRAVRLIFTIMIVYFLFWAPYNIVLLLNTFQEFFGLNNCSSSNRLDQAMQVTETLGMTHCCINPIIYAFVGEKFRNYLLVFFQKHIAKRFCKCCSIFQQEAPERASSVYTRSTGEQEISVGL

[9] = biological target: C-X-C chemokine receptor type 4 (Homo sapiens) (UniProt P61073); assay: Antagonist activity at CXCR4 (unknown origin) assessed as inhibition of calcium flux at 10 uM; assay type: functional
[10] = biological target: T4, G protein-coupled receptor (Human herpesvirus 8) (UniProt Q76SF8); assay: Binding affinity to HHV8 ORF74 at 10 uM by radioligand displacement assay; conditions: Human gammaherpesvirus 8
T4 sequence (whole entry): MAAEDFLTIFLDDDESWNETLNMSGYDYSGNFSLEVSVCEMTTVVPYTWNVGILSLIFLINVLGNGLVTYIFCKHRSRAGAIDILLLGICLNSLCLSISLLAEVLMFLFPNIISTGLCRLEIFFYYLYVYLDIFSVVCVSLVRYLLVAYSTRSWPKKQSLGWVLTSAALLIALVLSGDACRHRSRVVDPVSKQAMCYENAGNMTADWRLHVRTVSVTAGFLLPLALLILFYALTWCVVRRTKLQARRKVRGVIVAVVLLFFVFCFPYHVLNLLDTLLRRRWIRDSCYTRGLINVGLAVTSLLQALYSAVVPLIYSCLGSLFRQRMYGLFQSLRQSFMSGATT

[11] = biological target: T4, G protein-coupled receptor (Human herpesvirus 8); assay: Antagonist activity at HHV8 ORF74 assessed as inhibition of calcium flux at 10 uM; assay type: functional; conditions: Human gammaherpesvirus 8
[12] = Plasma clearance in Beagle dog at 1 mg/kg, iv; assay type: ADME, organism-based, Canis lupus familiaris; design: dose 1 mg/kg, route intravenous
[13] = biological target: T5, C-C chemokine receptor type 9 (Homo sapiens) (UniProt P51686); assay: Binding affinity to CCR9 (unknown origin) at 10 uM by radioligand displacement assay
T5 sequence (whole entry): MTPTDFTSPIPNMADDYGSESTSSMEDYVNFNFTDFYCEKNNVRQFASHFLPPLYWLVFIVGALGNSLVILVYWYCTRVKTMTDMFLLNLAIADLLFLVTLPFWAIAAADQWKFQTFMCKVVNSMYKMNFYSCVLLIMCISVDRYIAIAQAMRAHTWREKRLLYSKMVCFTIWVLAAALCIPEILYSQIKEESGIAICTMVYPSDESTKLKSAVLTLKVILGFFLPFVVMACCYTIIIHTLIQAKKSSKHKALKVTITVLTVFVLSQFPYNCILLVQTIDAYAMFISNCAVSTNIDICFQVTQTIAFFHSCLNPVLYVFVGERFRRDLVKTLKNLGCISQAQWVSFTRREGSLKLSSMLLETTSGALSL

[14] = biological target: Atypical chemokine receptor 3 (Homo sapiens) (UniProt P25106); assay: Binding affinity to CXCR7 (unknown origin) at 10 uM by radioligand displacement assay
Atypical chemokine receptor 3 (Homo sapiens), sequence (P25106 whole entry): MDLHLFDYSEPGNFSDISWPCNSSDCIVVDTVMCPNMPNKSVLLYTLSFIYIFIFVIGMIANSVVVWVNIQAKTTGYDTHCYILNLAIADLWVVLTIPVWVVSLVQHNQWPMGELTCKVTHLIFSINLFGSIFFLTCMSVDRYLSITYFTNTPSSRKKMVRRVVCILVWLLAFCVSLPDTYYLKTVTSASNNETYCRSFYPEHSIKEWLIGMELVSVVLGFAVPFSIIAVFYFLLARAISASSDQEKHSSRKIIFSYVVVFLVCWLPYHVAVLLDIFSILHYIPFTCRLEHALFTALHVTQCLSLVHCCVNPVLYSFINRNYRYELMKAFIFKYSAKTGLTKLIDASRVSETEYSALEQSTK

[15] = biological target: T6, CX3C chemokine receptor 1 (Homo sapiens) (UniProt P49238); assay: Antagonist activity at CX3CR1 (unknown origin) assessed as inhibition of chemotaxis at 10 uM
T6 sequence (whole entry): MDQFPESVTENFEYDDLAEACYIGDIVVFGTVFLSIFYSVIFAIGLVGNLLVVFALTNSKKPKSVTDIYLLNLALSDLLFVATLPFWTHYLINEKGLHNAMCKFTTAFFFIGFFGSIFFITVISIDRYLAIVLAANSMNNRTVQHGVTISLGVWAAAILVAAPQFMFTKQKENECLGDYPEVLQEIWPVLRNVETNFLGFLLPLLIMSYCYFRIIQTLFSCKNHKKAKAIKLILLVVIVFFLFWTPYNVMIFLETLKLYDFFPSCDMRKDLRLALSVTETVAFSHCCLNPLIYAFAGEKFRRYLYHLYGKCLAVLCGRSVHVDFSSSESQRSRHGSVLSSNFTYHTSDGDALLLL

C-X-C chemokine receptor type 4 (Homo sapiens), sequence (P61073 whole entry): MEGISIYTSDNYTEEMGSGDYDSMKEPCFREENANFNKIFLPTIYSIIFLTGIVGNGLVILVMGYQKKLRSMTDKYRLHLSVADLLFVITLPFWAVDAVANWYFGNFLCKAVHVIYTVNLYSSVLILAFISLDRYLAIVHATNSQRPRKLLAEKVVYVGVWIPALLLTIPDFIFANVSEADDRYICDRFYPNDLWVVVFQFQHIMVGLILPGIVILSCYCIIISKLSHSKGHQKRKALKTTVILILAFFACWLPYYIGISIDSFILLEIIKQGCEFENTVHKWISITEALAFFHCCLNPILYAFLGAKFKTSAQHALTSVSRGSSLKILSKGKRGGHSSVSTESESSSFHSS

With COc1cc(N2CCN(C(=O)Cn3nc(C(F)(F)F)c(Cl)c3C)CC2)ccc1Cl the inhibition [1] was “inactive”, the Activity [2] was “inactive” and the IC50 [3] was > 10 µM. The IC50 [4] was 6 µM, the Activity [5] was “inactive” and the inhibition [6] was “inactive”. The inhibition [7] was “inactive”, the Activity [8] was “inactive” and the inhibition [9] was “inactive”. The Activity [10] was “inactive”, the inhibition [11] was “inactive” and the clearance [12] was 9.6 mL/min/kg. The Activity [13] was “inactive”, the Activity [14] was “inactive” and the inhibition [15] was “inactive”.
